Reference: ChEMBL document CHEMBL4673354, “N-(Methyloxycarbonyl)thiophene sulfonamides as high affinity AT2 receptor ligands” (Bioorg Med Chem, 2021)

Experiments:
[1] = Oral bioavailability in rat; format: ADME, organism-based; conditions: in vivo
[2] = Apparent permeability across apical to basolateral side and basolateral to apical side in human Caco-2 cells at 5 uM measured up to 60 mins by LC-MS/MS analysis; format: ADME, cell-based

Row | bioavailability [1] [%] | Papp at 1 h, 5 µM [2] [×10⁻⁶ cm/s] | Structure (SMILES)
1 | 33 | – | COc1ccc2c(c1OCc1ccccc1)CC(C(=O)O)N(C(=O)C(c1ccccc1)c1ccccc1)C2 (centres undefined)
2 | – | 3.4 | CCCCOC(=O)NS(=O)(=O)c1sc(CC(C)C)cc1-c1cccc(Cn2ccnc2)c1
3 | – | 0.4 | CCCCOC(=O)NS(=O)(=O)c1sc(CC(C)C)cc1-c1cccc(C(=O)Cn2cnc3cc(C)c(C)cc32)c1
4 | – | 1.8 | COc1ccc2c(c1OCc1ccccc1)C[C@@H](C(=O)O)N(C(=O)C(c1ccccc1)c1ccccc1)C2 [OLODANRIGAN]
